The first data set relates to HCMV (strain AD169). As to the kind of experiment: Inhibition of HCMV replication, ELISA assay (Hs-68 cells). In kind it is cell-based, Human Cytomegalovirus (HCMV). The note with it: Human betaherpesvirus 5, AD169, Hs68, Group 1 Table 5 entries, read-out: ELISA CMV EC50. Summed up:
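EC50 derived from % inhibition of viral replication, read as p28 late-protein ELISA signal (mAb UL99, peroxidase/OPD, 450 nm) on fixed cells. Read-out came 8 days post-infection at 37 °C in DMEM with 5% FBS plus compound, after 2 h adsorption of AD169 at MOI 0.01 PFU/cell onto near-confluent Hs-68 cells.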
For orientation: In an ELISA, binding on a coated surface is turned into a signal by an enzyme label.
For `CN(C(=O)OC(C)(C)C)[C@@H](Cc1ccccc1)C(=O)Nc1ccc(-c2csc(N)n2)cc1` [Example 10], the EC50 was determined as 2500 nM. Regarding `Nc1nc(-c2ccc(NC(=O)[C@H](Cc3ccccc3)N(Cc3ccccc3)C(=O)C3CCCCC3)cc2)cs1` [Example 11], the EC50 was found to be 1400 nM. Same read-out and setting: the same measure for `CC(C)(C)CC(=O)N[C@@H](Cc1ccccc1)C(=O)Nc1ccc(-c2csc(N)n2)cc1` [Example 19]: 3800 nM. The same measure, in the same setting: the same measure for `Nc1nc(-c2ccc(NC(=O)[C@H](Cc3ccccc3)NS(=O)(=O)N3CCOCC3)cc2)cs1` [Example 25]: 600 nM.

Still in this data set, the particulars now being: Human betaherpesvirus 5, AD169, Hs68, Group 1 Table 6 entries, read-out: ELISA CMV EC50.
In the case of `Nc1nc(-c2ccc(NC(=O)[C@@H]3CCC(=O)N3Cc3ccccc3)cc2)cs1` [Example 2], the EC50 stood at 22000 nM.

`Nc1nc(-c2ccc(NC(=O)[C@H]3CCC(=O)N3CC3CCCCC3)cc2)cs1` [Example 3]: the EC50 stood at 1400 nM.

As to `Nc1nc(-c2ccc(NC(=O)[C@@H]3CCCN3C(=O)c3ccccc3)cc2)cs1` [Example 5], the EC50 was determined as 63000 nM. For the molecule `Nc1nc(-c2ccc(NC(=O)[C@@H]3CCCN3C(=O)C3CCCCC3)cc2)cs1` [Example 6], the EC50 worked out at 28000 nM. Regarding `CC(C)(C)OC(=O)N1CCC[C@@H]1C(=O)Nc1ccc(-c2csc(N)n2)cc1` [Example 8], the EC50 came to 11000 nM.

As for `Nc1nc(-c2ccc(NC(=O)[C@H]3CCCN3C(=O)c3ccccc3)cc2)cs1` [Example 9], the EC50 was found to be 300 nM. The same measure, in the same setting: under `Nc1nc(-c2ccc(NC(=O)[C@H]3CCCN3C(=O)C3CCCCC3)cc2)cs1` [Example 10] stands 600 nM.

Staying with this data set, now noted: Human betaherpesvirus 5, AD169, Hs68, Group 2 Table 1 entries, read-out: ELISA CMV EC50.
As for `CCCCN(CCCC)C(=O)Nc1ccc(-c2csc(N)n2)cc1` [Example 1, N-{4-(2-Amino-4-thiazolyl)phenyl}-N,N-dibutylurea], the EC50 stood at 4100 nM.

In the case of `CN(CCc1ccccn1)C(=O)Nc1ccc(-c2csc(N)n2)cc1` [Example 4], the half-maximal effective concentration (EC50) worked out at 126000 nM. Turning to `CCCC(CCC)NC(=O)Nc1ccc(-c2csc(N)n2)cc1` [Example 11], the EC50 was found to be 1300 nM. With `CC(C)(C)NC(=O)Nc1ccc(-c2csc(N)n2)cc1` [Example 12], the EC50 came out at 6000 nM. Turning to `CN(CCc1ccccn1)C(=O)Nc1ccc(-c2csc(NC(=O)OC(C)(C)C)n2)cc1` [Example 14], the EC50 was found to be 1500 nM.

In the case of `CCCCN(CCCC)C(=O)Nc1ccc(-c2csc(NC(=O)OC(C)(C)C)n2)cc1` [Example 15], the EC50 came out at 1000 nM.

Still in this data set, the particulars now being: Human betaherpesvirus 5, AD169, Hs68, Group 2 Table 2 entries, read-out: ELISA CMV EC50.
As to `CCCCN(CCCC)C(=O)C(=O)Nc1ccc(-c2csc(N)n2)cc1` [Example 1, N-{4-(2-Amino-4-thiazolyl)phenyl}-N',N'-dibutylethanediamide], the EC50 is 2600 nM.

Test system in another data set: not listed separately
As to the kind of experiment: Inhibition of HCMV replication, plaque reduction assay (PRA, Hs-68 cells). The format is cell-based, Human Cytomegalovirus (HCMV). Particulars: human, Group 1 Table 5 entries, read-out: Cytotoxic at this concentration (footnote *, PRA CMV). Summed up: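 Hs-68 monolayers (80–90% confluent) were infected with ~50 PFU HCMV AD169 for 2 h at 37°, then given compound in DMEM/5% inactivated FBS, refreshed after 4 days and kept 4 more days. Plaques were counted after formaldehyde fixation and crystal violet staining. EC50 derives from percent plaque reduction versus untreated wells.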
Background: Plaques are areas of infected cells; plaque reduction assays count them against a control.
As to `CC(C)(C)CC(=O)N[C@@H](Cc1ccccc1)C(=O)Nc1ccc(-c2csc(N)n2)cc1` [Example 19], the MCC at 192 h came out at 21 µM.

The term EC50 denotes the concentration at which the effect is half-maximal.
